From patent US20230058171A1, “NEW ORAL PHARMACEUTICAL COMPOSITION FOR CANCER THERAPY” (BOEHRINGER INGELHEIM INTERNATIONAL GMBH, priority 2021, published 2023)

Legend:
[1] = tested on: patients with advanced or metastatic solid tumors; assay: Trial 1403-0001 Phase Ia dose escalation, Arm A (D1 q3w): adverse events; assay type: in vivo
Source text: Trial 1403-0001 was a first in human Phase Ia/Ib, open label, multicenter, dose-escalation study of the MDM2-antagonist of formula I in patients with advanced or metastatic solid tumors. The Phase Ia dose escalation part aimed to define the Maximum Tolerated Dose (MTD) and the Recommended Dose for Expansion (RDE) for the MDM2-antagonist of formula I based on safety and tolerability, pharmacokinetics, pharmacodynamics, and preliminary efficacy. The RDE will be further explored in the Phase Ib expansion part of the trial.
Fifty-four patients had been treated with the MDM2-antagonist of formula I in the Phase Ia dose escalation part of clinical trial 1403-0001. Twenty-nine patients were treated in Arm A (dosing regimen: dosing on Day 1 of a 21 days-cycle, D1 q3w) and twenty-five patients were treated in Arm B (dosing regimen: dosing on Day 1 and on Day 8 of a 28 days-cycle, D1 D8 q4w). Dose levels evaluated in Arm A were 10, 20, 30, 45, 50, 60, and 80 mg. Dose levels evaluated in Arm B (referring to the dose administered on Day 1 and Day 8) were 5, 10, 15, 20, 30, 45, and 60 mg.
During the on-treatment period, all 29 patients were reported with adverse events (AEs). […] A total of 27 patients (93.1%) were reported with at least 1 AE judged to be related to the MDM2-antagonist of formula I by investigators.

[2] = tested on: patients with advanced or metastatic solid tumors; assay: Trial 1403-0001 dose finding: MTD/RDE, BLRM analysis with overdose control (EWOC); assay type: in vivo; settings: for N of evaluable patients with events of interests: all cycles
Source text: Preliminary pharmacokinetic (PK) data were also used as supportive information for the dose decision.

Cc1c(C(=O)O)ccc2c3n(nc12)[C@@H]1[C@H](C3)N(CC2CC2)[C@@]2(C(=O)Nc3cc(Cl)ccc32)[C@H]1c1cccc(Cl)c1F [MDM2-antagonist of formula I, (2′S,3′S,3a'S,10a'S)-6-chloro-3′-(3-chloro-2-fluorophenyl)-1′-(cyclopropylmethyl)-6′-methyl-2-oxo-1,2,3′,3a′,10′,10a′-hexahydro-1′H-spiro[indole-3,2′-pyrrolo[2′,3′:4,5]pyrrolo[1,2-b]indazole]-7′-carboxylic acid]
Serious AEs: Results in Death, % ([1]; Arm A D1 q3w, 10 mg): 0%
Subjects with maximum CTC Grade 5, % ([1]; Arm A D1 q3w, 10 mg): 0%
Serious AEs: Results in Death, % ([1]; Arm A D1 q3w, 20 mg): 0%
Subjects with maximum CTC Grade 5, % ([1]; Arm A D1 q3w, 20 mg): 0%
Serious AEs: Results in Death, % ([1]; Arm A D1 q3w, 30 mg): 0%
Subjects with AEs leading to dose reduction of trial drug, % ([1]; Arm A D1 q3w, 30 mg): 33.3%
Subjects with maximum CTC Grade 2, % ([1]; Arm A D1 q3w, 30 mg): 33.3%
Subjects with maximum CTC Grade 3, % ([1]; Arm A D1 q3w, 30 mg): 66.7%
Subjects with maximum CTC Grade 5, % ([1]; Arm A D1 q3w, 30 mg): 0%
Patients with Dose limiting toxicity, % ([1]; Arm A D1 q3w, 45 mg): 33.3%
Serious AEs: Results in Death, % ([1]; Arm A D1 q3w, 45 mg): 0%
Subjects with AEs leading to dose reduction of trial drug, % ([1]; Arm A D1 q3w, 45 mg): 33.3%
Subjects with maximum CTC Grade 3, % ([1]; Arm A D1 q3w, 45 mg): 33.3%
Subjects with maximum CTC Grade 5, % ([1]; Arm A D1 q3w, 45 mg): 0%
Serious AEs: Results in Death, % ([1]; Arm A D1 q3w, 50 mg): 0%
Subjects with maximum CTC Grade 5, % ([1]; Arm A D1 q3w, 50 mg): 0%
Serious AEs: Results in Death, % ([1]; Arm A D1 q3w, 60 mg): 0%
Subjects with maximum CTC Grade 3, % ([1]; Arm A D1 q3w, 60 mg): 71.4%
Subjects with maximum CTC Grade 5, % ([1]; Arm A D1 q3w, 60 mg): 0%
Patients with Dose limiting toxicity, % ([1]; Arm A D1 q3w, 80 mg): 66.7%
Serious AEs: Requires or Prolongs Hospitalization, % ([1]; Arm A D1 q3w, 80 mg): 33.3%
Serious AEs: Results in Death, % ([1]; Arm A D1 q3w, 80 mg): 0%
Subjects with maximum CTC Grade 2, % ([1]; Arm A D1 q3w, 80 mg): 33.3%
Subjects with maximum CTC Grade 4, % ([1]; Arm A D1 q3w, 80 mg): 66.7%
Subjects with maximum CTC Grade 5, % ([1]; Arm A D1 q3w, 80 mg): 0%
Subjects with serious AEs, % ([1]; Arm A D1 q3w, 80 mg): 33.3%
Serious AEs: Requires or Prolongs Hospitalization, % ([1]; Arm A D1 q3w, Total): 31.0%
Serious AEs: Results in Death, % ([1]; Arm A D1 q3w, Total): 0%
Subjects with AEs leading to Discontinuation of trial drug, % ([1]; Arm A D1 q3w, Total): 6.9%
Subjects with maximum CTC Grade 5, % ([1]; Arm A D1 q3w, Total): 0%
drug-related AE diarrhea, patients ([1]; Arm A, all 29 patients): 27.6%
drug-related AE fatigue, patients ([1]; Arm A, all 29 patients): 41.1%
drug-related AE nausea, patients ([1]; Arm A, all 29 patients): 72.4%
drug-related AE platelet count decreased, patients ([1]; Arm A, all 29 patients): 37.9%
drug-related AE vomiting, patients ([1]; Arm A, all 29 patients): 41.1%
drug-related AE white blood cell count decreased, patients ([1]; Arm A, all 29 patients): 27.6%
fatal AEs ([1]; Arm A, all 29 patients): No fatal AEs were reported
patients with DLTs during the MTD evaluation period (cycle 1) ([1]; Arm A, all 29 patients): 17.2%
AE anemia, patients ([1]; human, in vivo): 41.4%
AE back pain, patients ([1]; human, in vivo): 20.7%
AE decreased appetite, patients ([1]; human, in vivo): 41.4%
AE diarrhea, patients ([1]; human, in vivo): 34.5%
AE fatigue, patients ([1]; human, in vivo): 51.7%
AE nausea, patients ([1]; human, in vivo): 82.8%
AE platelet count decreased, patients ([1]; human, in vivo): 37.9%
AE vomiting, patients ([1]; human, in vivo): 48.3%
AEs leading to Discontinuation: Other adverse event, % ([1]; human, in vivo): 3.4%
Grade 3 AE platelet count decreased, patients ([1]; human, in vivo): 13.8%
Grade 4 AE neutrophil count decreased, patients ([1]; human, in vivo): 10.3%
SAE platelet count decreased, patients ([1]; human, in vivo): 6.9%
Serious AEs: Cogenital Anomaly or Birth Defect, % ([1]; human, in vivo): 0%
Serious AEs: Is Life Threatening, % ([1]; human, in vivo): 0%
Serious AEs: Other Medically Important Serious Event, % ([1]; human, in vivo): 3.4%
Serious AEs: Persists of Signif. Disability/Incapacity, % ([1]; human, in vivo): 0%
Subjects with any AE, % ([1]; human, in vivo): 100%
Subjects with investigator defined drug-related AEs, % ([1]; human, in vivo): 93.1%
Subjects with maximum CTC Grade 1, % ([1]; human, in vivo): 3.4%
Subjects with maximum CTC Grade 2, % ([1]; human, in vivo): 27.6%
Subjects with maximum CTC Grade 3, % ([1]; human, in vivo): 51.7%
Subjects with maximum CTC Grade 4, % ([1]; human, in vivo): 17.2%
Subjects with serious AEs, % ([1]; human, in vivo): 31.0%
dose reduction due to enterocolitis, patients ([1]; human, in vivo): 3.4%
dose reduction due to nausea, patients ([1]; human, in vivo): 6.9%
dose reduction due to neutropenia and/or thrombocytopenia, patients ([1]; human, in vivo): 20.7%
drug-related AE anemia, patients ([1]; human, in vivo): 24.1%
drug-related AE decreased appetite, patients ([1]; human, in vivo): 34.5%
N of evaluable patients with events of interests ([2]; Arm A, 10 mg (1 evaluable)): 1
N of evaluable patients with events of interests ([2]; Arm A, 20 mg (2 evaluable)): 1
N of evaluable patients with events of interests ([2]; Arm A, 30 mg (3 evaluable)): 1
N of evaluable patients with events of interests ([2]; Arm A, 45 mg (6 evaluable)): 1
N of evaluable patients with events of interests ([2]; Arm A, 50 mg (4 evaluable)): 1
N of evaluable patients with events of interests ([2]; Arm A, 60 mg (7 evaluable)): 2
N of evaluable patients with events of interests ([2]; Arm A, 80 mg (6 evaluable)): 5
highest dose level that fulfilled the EWOC criterion from the additional BLRM analysis ([2]; Arm A, events of interest during the entire treatment period): 45 mg
Maximum Tolerated Dose (MTD) ([2]; monotherapy, Arm A D1 q3w): 60 mg
Recommended Dose for Expansion (RDE) ([2]; monotherapy, Arm A D1 q3w): 45 mg
Maximum Tolerated Dose (MTD) ([2]; monotherapy, Arm B D1 D8 q4w): 45 mg
